According to paper PMC6820788, “Structural insights of human mitofusin-2 into mitochondrial fusion and CMT2A onset” (Nature Communications, 2019):
Residue numbers refer to the chain shown, from its start.

Experiments:
[1] = molecular target: T1, MFN1IM (Homo sapiens, UniProt Q8IWA4, DEL365-694); assay: stopped-flow fluorescence, nucleotide exchange; type: binding; conditions: labelled compound; protein preincubated with GDP; pH 7.5, 150 mM KCl, 5 mM MgCl2
T1 construct: gene MFN1; internally truncated (residues 365-694 removed, G domain + HD1); E. coli; His6 cut by PreScission
T1 sequence (Q8IWA4 1-364): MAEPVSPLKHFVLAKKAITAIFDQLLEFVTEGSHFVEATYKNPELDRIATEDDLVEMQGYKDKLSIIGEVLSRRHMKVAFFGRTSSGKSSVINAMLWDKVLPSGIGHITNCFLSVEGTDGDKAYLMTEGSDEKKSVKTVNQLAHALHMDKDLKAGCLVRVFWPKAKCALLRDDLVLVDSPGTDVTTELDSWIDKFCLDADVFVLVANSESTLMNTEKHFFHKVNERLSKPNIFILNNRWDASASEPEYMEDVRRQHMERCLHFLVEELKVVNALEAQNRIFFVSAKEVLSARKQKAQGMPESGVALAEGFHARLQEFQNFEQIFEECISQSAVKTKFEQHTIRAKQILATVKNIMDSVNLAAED
T1 sequence (Q8IWA4 695-741): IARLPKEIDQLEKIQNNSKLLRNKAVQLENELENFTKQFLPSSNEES

[2] = molecular target: T2, MFN2IM (Homo sapiens, UniProt O95140, DEL401-705); assay: stopped-flow fluorescence, nucleotide exchange; type: binding; conditions: labelled compound; protein preincubated with GDP; pH 7.5, 150 mM KCl, 5 mM MgCl2
T2 construct: gene MFN2; deletion of residues 1-21 and 401-705 (G domain + HD1); E. coli; N-terminal His6 cut by PreScission
T2 sequence (O95140 22-400): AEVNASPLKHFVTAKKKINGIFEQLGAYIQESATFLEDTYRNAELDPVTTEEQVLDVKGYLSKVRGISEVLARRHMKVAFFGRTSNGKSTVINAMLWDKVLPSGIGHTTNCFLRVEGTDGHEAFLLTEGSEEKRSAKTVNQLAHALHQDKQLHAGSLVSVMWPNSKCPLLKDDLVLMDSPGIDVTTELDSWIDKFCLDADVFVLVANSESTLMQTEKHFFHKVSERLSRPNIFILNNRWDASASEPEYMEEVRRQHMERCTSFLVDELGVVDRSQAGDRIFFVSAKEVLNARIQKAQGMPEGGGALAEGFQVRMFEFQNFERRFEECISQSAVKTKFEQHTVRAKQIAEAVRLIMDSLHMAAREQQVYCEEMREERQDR
T2 sequence (O95140 706-757): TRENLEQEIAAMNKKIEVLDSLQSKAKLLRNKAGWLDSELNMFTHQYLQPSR

[3] = molecular target: T3, MFN2IM (Homo sapiens, UniProt O95140, T129I/DEL401-705); assay: stopped-flow fluorescence, displacement by unlabeled GDP; type: binding; conditions: labelled compound; pH 7.5, 150 mM KCl, 5 mM MgCl2
T3 construct: gene MFN2; deletion of residues 1-21 and 401-705 (G domain + HD1); E. coli; N-terminal His6 cut by PreScission
T3 sequence (O95140 22-400 T129I): T2 sequence (O95140 22-400) with T108I
T3 sequence (O95140 706-757): T2 sequence (O95140 706-757)

[4] = molecular target: T4, MFN1IM (Homo sapiens, UniProt Q8IWA4, I108T/DEL365-694); assay: as above; type: binding; conditions: labelled compound; pH 7.5, 150 mM KCl, 5 mM MgCl2
T4 construct: gene MFN1; internally truncated (residues 365-694 removed, G domain + HD1); E. coli; His6 cut by PreScission
T4 sequence (Q8IWA4 1-364 I108T): T1 sequence (Q8IWA4 1-364) with I108T
T4 sequence (Q8IWA4 695-741): T1 sequence (Q8IWA4 695-741)

[5] = molecular target: T5, mouse MFN1IM (mm) (Mus musculus, UniProt Q811U4); assay: GTP hydrolysis, HPLC; type: biochemical; conditions: 37 °C, pH 7.5, 150 mM KCl, 5 mM MgCl2
T5 construct: gene Mfn1; internally truncated counterpart of human MFN1IM
T5 sequence (Q811U4 1-364 limits assumed): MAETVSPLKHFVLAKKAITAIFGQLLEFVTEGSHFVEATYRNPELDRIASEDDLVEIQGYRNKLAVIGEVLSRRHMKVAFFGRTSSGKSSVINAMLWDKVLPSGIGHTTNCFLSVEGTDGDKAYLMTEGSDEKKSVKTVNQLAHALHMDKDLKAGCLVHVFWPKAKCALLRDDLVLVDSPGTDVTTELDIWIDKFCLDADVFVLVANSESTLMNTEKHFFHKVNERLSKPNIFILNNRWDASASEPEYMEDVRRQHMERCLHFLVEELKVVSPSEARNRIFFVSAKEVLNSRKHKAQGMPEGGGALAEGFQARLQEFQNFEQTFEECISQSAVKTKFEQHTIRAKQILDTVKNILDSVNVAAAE
T5 sequence (Q811U4 695-741 limits assumed): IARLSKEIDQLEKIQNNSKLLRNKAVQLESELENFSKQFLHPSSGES

[6] = molecular target: T6, mouse MFN2IM (mm) (Mus musculus, UniProt Q80U63); assay: GTP hydrolysis, HPLC; type: biochemical; conditions: 37 °C, pH 7.5, 150 mM KCl, 5 mM MgCl2
T6 construct: gene Mfn2; internally truncated counterpart of human MFN2IM
T6 sequence (Q80U63 22-400 limits assumed): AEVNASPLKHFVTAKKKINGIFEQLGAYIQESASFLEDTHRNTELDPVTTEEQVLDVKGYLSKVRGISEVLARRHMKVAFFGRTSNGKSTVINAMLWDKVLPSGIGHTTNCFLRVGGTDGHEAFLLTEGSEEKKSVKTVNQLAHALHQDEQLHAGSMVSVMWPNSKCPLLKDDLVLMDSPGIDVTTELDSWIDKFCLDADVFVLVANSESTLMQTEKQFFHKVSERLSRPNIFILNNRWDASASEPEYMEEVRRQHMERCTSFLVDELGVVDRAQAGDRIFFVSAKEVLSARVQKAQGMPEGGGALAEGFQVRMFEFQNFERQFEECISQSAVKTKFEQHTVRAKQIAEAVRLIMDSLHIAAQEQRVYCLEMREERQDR
T6 sequence (Q80U63 706-757 limits assumed): T2 sequence (O95140 706-757) with E3D, I16V, V18A, K25R

With CNc1ccccc1C(=O)O[C@H]1[C@@H](O)[C@H](n2cnc3c(=O)[nH]c(N)nc32)O[C@@H]1COP(=O)(O)OP(=O)(O)OP(=O)(O)O [mant-GTP] the “stopped-flow fluorescence, nucleotide exchange” value [1] was “G domain dimerization greatly reduced the mant-GTP reload rate of both MFN2IM and MFN1IM” and the “stopped-flow fluorescence, nucleotide exchange” value [2] was “MFN2IM bound more mant-GTP over time due to a higher affinity to GTP”.
For CNc1ccccc1C(=O)O[C@H]1[C@@H](O)[C@H](n2cnc3c(=O)[nH]c(N)nc32)O[C@@H]1COP(=O)(O)OP(=O)(O)O [mant-GDP], the GDP off-rate [3] was “GDP off-rates of MFN2IM(T129I) and MFN1IM(I108T)” and the GDP off-rate [4] was “GDP off-rates of MFN2IM(T129I) and MFN1IM(I108T)”.
For Nc1nc2c(ncn2[C@@H]2O[C@H](COP(=O)(O)OP(=O)(O)OP(=O)(O)O)[C@@H](O)[C@H]2O)c(=O)[nH]1 [GTP], the GTP turnover rate [5] was “Mouse MFN1IM and MFN2IM showed weak GTPase hydrolysis” and the GTP turnover rate [6] was “Mouse MFN1IM and MFN2IM showed weak GTPase hydrolysis”.
